Among the data in the METLIN SMRT retention time set (Domingo-Almenara et al. 2019) are RP-LC retention time values, retold here.

The nature of this data set: gradient 5% acetonitrile 3 min, to 50% in 2 min, to 85% in 15 min, held 3 min, 100 µL/min. Conditions: column: Zorbax Extend-C18 2.1 x 50 mm; eluents: water / acetonitrile, 0.1% formic acid. The gist of the method:
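Pure standards were run in mixtures of ~100 molecules by HPLC coupled to a quadrupole time-of-flight mass spectrometer. The column was a Zorbax Extend-C18 (2.1 × 50 mm, 1.8 μm) at 100 μL/min, with water and acetonitrile each containing 0.1% formic acid, in positive and negative ionization mode. Dead and dwell volumes were 40 μL and 900 μL. Retention time was taken from computationally picked adduct peaks, each manually inspected, with data collected over 3 months.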
Turning to `Cc1cccc(N2CC(C(=O)NC3CCCC3)CC2=O)c1` (stereo not given), the RP-LC retention time stood at 767 s.
Then `CCOc1ccccc1-c1noc(-c2nn(-c3ccc(C)cc3)ccc2=O)n1`, with 923 s; and `CC(C)OCCCNC(=O)c1ccc2c(c1)NC(=O)C(C(C)C)N2` (stereo not given), with 688 s.
`CC(=O)N1CCc2cc(CNS(=O)(=O)c3ccc(Cl)cc3)ccc21` registered an RP-LC retention time of 811 s.
The same measure for `COc1ccc(-c2ccnn2-c2ccc(SCc3ccccc3F)nn2)cc1`: 1310 s.
The same measure for `CCCOc1ccc(CNC(=O)C2CCc3nc(N4CCOCC4)ncc3C2)cc1` (stereo not given): 792 s.
The molecule `CCOc1cc(C2C(C(=O)N3CCCCC3)=C(C)NC3=C2C(=O)CCC3)ccc1OC(C)=O` (stereo not given) came in with an RP-LC retention time of 710 s.
Turning to `CCN1CCN(C(=O)CN2C(=O)C3CCCCN3c3ccc(S(=O)(=O)N(CC)CC)cc32)CC1` (stereo not given), the RP-LC retention time is 670 s.
As for `COc1ccc(CC(=O)N2CCC3(CC2)NC(=O)c2cc(F)ccc2N3C)cc1`, the RP-LC retention time stood at 768 s.
The same measure for `CSc1ccc(-c2noc(Cc3nnc(-c4ccc(C)c(C)c4)o3)n2)cc1`: 1190 s; for `CCOc1ccc(CC(=O)N2CCCC2c2nc(-c3ccccc3)no2)cc1OCC` (stereo not given): 1010 s; for `CCOc1ccc(CCNC(=O)c2sc(-c3cccn3CC)nc2C)cc1OCC`: 1140 s.
As for `Cc1cc(NC(=O)Cn2cnc3c(oc4ccccc43)c2=O)no1`, the RP-LC retention time was 668 s.
`O=C(Nc1ccc(Cl)cc1)C1CCN(C(=O)C2Sc3ccccc3NC2=O)CC1` (stereo not given) returned an RP-LC retention time of 819 s.
Then `CCc1nc(-c2csc(S(=O)(=O)N3CCCC(C(=O)Nc4ccc(Cl)cc4)C3)c2)no1` (stereo not given), with 1100 s; and `O=C(CCc1ccccc1)N1CCN(C(=O)c2nnn3c2COC(c2ccccc2)C3)CC1` (stereo not given), with 891 s.
Then `CN(C)CCNC(=O)c1cc2cc(S(=O)(=O)N(C)C)ccc2n1Cc1ccccc1`, with 674 s; and `O=C(CN1CCN(Cc2ccccc2F)C1=O)N1CCN(C2CCCCC2)CC1`, with 613 s; and `COC(=O)c1ccc(NC(=O)Cn2cnc3c(sc4nc(-c5ccccc5)ccc43)c2=O)cc1`, with 985 s.
The same measure for `Oc1ccc2ccc3[nH]cnc3c2c1`: 625 s; for `Cc1ccc(CNS(=O)(=O)c2cc(-c3[nH]ncc3C(=O)N3CCCC3)oc2C)cc1C`: 768 s.
As for `CCOC(C)C(/C=N/NC(N)=S)=N/NC(N)=S` (stereo not given), the RP-LC retention time is 654 s.
The same measure for `CCn1nccc1C(=O)NC1CCN(c2cc(-c3ccccc3)[nH]n2)CC1`: 688 s; for `CCN1C(=O)CN(C(=O)C2CCCCC2)CC12CCOCC2`: 654 s; for `CC1(c2nc(C3CC3)no2)CCCN(C(=O)c2n[nH]c3ccccc23)C1` (stereo not given): 781 s.
Consider `CCCN(C)c1nccn2c(=O)n(CC(=O)Nc3ccc(C)cc3Cl)nc12`, for which the RP-LC retention time was 736 s.
With `COc1ccc(NC(=O)C2CCN(c3nnc4cccc(C)n34)CC2)cc1Cl`, the RP-LC retention time is 700 s.
`O=C(NCCc1ccccc1)N1CCC(n2c(-c3ccoc3)nc3cccnc32)C1` (stereo not given) came in with an RP-LC retention time of 725 s.
For the molecule `O=C(Nc1ccc(F)c(Cl)c1)N1CCC(OC2CCN(Cc3ccccc3)CC2)CC1`, the RP-LC retention time was 710 s.
The same measure for `Cc1noc(CNC(=O)Cn2cnc3ccccc3c2=O)n1`: 576 s; for `O=C(CCC1NC(=O)c2ccccc2NC1=O)Nc1ncn[nH]1` (stereo not given): 521 s.
Take `CCc1ccc(NC(=O)Cn2c(C)nc3onc(C)c3c2=O)cc1`: the RP-LC retention time turned out to be 845 s.
For the molecule `CCOc1ccc(-c2nc(C3CC(=O)N(c4ccc(C)cc4)C3)no2)cc1` (stereo not given), the RP-LC retention time was determined as 1070 s.
Then `CCN(CC)C(=O)N1CCC(Oc2ccc(-c3noc(COC)n3)cc2)C1` (stereo not given), with 874 s; and `CC(C)C(=O)NCc1csc(C2CCCN(C(=O)c3cc(F)cc(F)c3)C2)n1` (stereo not given), with 757 s; and `CCOCC(=O)Nc1ccc2c(c1)Sc1ncccc1C(=O)N2C(C)C`, with 764 s.
On to `Cc1cccc(-c2noc(Cn3cnc4c(cnn4-c4ccc(C)c(Cl)c4)c3=O)n2)c1`, for which the RP-LC retention time is 1280 s.
`COc1cccc(CCC(=O)N2C[C@@H]3C[C@H](NC(=O)c4ccccc4)[C@H]2C3)c1` returned an RP-LC retention time of 793 s.
The same measure for `O=C(COc1ccccc1F)NCCS(=O)(=O)N1CCN(c2ncccn2)CC1`: 716 s.
Molecule `COc1ccc(S(=O)(=O)NCCc2ccc(N3CCCC3)cc2)cc1OC` came in with an RP-LC retention time of 776 s.
The same measure for `O=C(NCCn1c(=O)n(Cc2ccc(F)cc2)c2cccnc21)c1cccs1`: 772 s; for `Cc1cc(C)n(CCNC(=O)c2ccsc2)n1`: 593 s.
The molecule `Cc1nc(Nc2ccc(Br)cn2)sc1C(=O)N1CCC(C(N)=O)CC1` displayed an RP-LC retention time of 642 s.
Then `CCc1ccc(C(O)CN2CCN(c3ccccc3)CC2)cc1` (stereo not given), with 692 s; and `COC(=O)C1=C(C)N(C2CCCCC2)C(=O)C1(NC(=O)c1cccc(OC)c1)C(F)(F)F` (stereo not given), with 1070 s; and `CCOc1ccc(Nc2c(-c3ccccc3)nc3cnccn23)cc1`, with 877 s.
The same measure for `CN(Cc1ccccc1)C(=O)c1ccc(-c2cccs2)nc1`: 920 s; for `O=c1c(=O)n(Cc2nc(-c3ccc4c(c3)OCO4)no2)ccn1Cc1ccc(Cl)cc1`: 879 s; for `Cc1[nH]c(C(=O)N2CCCC(C(=O)NC3CCCCC3)C2)c(C)c1C(=O)OC(C)C` (stereo not given): 861 s.
Then `CCOCCCNC(=O)c1c2c(cn(-c3ccc(F)cc3)c1=O)C(=O)CC(C)(C)C2`, with 859 s.
`Cc1ncsc1CN1CC(Cn2c(C)cnc2-c2ccncc2)C1` yielded an RP-LC retention time of 818 s.
Then `CCOc1ccc(CC(=O)N2CCCC2c2nc(-c3ccc(OC)c(OC)c3)no2)cc1OCC` (stereo not given), with 925 s; and `O=C(Nc1ccc(-c2cn3cccnc3n2)cc1)c1ccc(F)c(F)c1`, with 647 s.
The same measure for `O=C(Nc1nnc(C2CC(=O)N(c3ccccc3)C2)o1)c1ccccc1Br` (stereo not given): 709 s; for `COc1cc(Cl)ccc1C(=O)N1CCCC1c1nc(-c2ccccc2)no1` (stereo not given): 1070 s.
Take `CN1C(=O)C(C)(C(=O)Nc2ccccc2Cl)Oc2cccnc21` (stereo not given): the RP-LC retention time was 854 s.
`CN(C)C(=O)c1ccc2c(c1)nc(CN1CCN(C(=O)c3cccs3)CC1)n2C` gave an RP-LC retention time of 588 s.
Consider `COCCc1nnc(NC(=O)C2c3ccccc3Oc3ccccc32)o1`, for which the RP-LC retention time was found to be 718 s.
`COc1ccc(OC)c(S(=O)(=O)NCc2c(-c3ccccc3)nc3sc(C)nn23)c1` showed an RP-LC retention time of 839 s.
On to `Cc1ccc(Nc2c(-c3cc(Br)ccc3O)nc3ncccn23)cc1`, for which the RP-LC retention time is 1050 s.
The same measure for `CCC(=O)N1CCc2c(C(=O)NC(C)C)cccc21`: 687 s; for `Cc1nn(-c2ccc(-c3ccccc3)nn2)c(C)c1S(=O)(=O)NCc1ccc2c(c1)OCO2`: 978 s.
`CC(C)C(=O)N1CCc2c(c(C(=O)N3CCC(C(=O)N4CCC5(CC4)OCCO5)CC3)nn2C)C1` showed an RP-LC retention time of 626 s.
For `COc1ccc(-c2cc(=O)n(CC(=O)Nc3cccc4nsnc34)cn2)cc1`, the RP-LC retention time was 748 s.
The same measure for `O=C(NCc1ccc2c(c1)OCO2)C1CCN(c2cc(N3CCCCC3)ncn2)CC1`: 715 s; for `COc1ccc(CNC(=O)c2cc3c(-c4cccs4)nn(-c4ccccc4)c3n2C)cc1`: 1120 s; for `CCc1nc(-c2nnn(-c3ccc(C)cc3)c2C)no1`: 945 s.
Then `CC1=C(c2ccc(F)cc2)S(=O)(=O)N=C1N1CCC(NC(=O)CCC(C)C)CC1`, with 844 s; and `Cc1nc2nc(-c3ccco3)nn2c(N2CCN(c3ccccn3)CC2)c1C`, with 596 s.
Then `CCOC(=O)CNC(=O)N1CCN(Cc2nc3cccnc3n2-c2ccc(CC)cc2)CC1`, with 654 s.
Consider `Cc1cc(C)cc(N2CCC(NC(=O)Nc3ccccc3C)C2=O)c1` (stereo not given), for which the RP-LC retention time came to 890 s.
Then `COc1ccc(NC(=O)CCNc2cnc3cnccn23)cc1F`, with 589 s.
The same measure for `COc1ccc(NC(=O)NC2CCN(c3ccc(F)cc3)C2=O)c(OC)c1` (stereo not given): 716 s; for `COc1ccc(NC(=O)NCCC2CCN(S(=O)(=O)c3ccccc3)CC2)cc1`: 822 s; for `CN(CC1(C)CCOCC1)S(=O)(=O)c1ccc(C(F)(F)F)cc1`: 997 s.
The same measure for `c1cn(-c2ccc(-c3noc(-c4ccc5c(c4)OCO5)n3)cn2)cn1`: 853 s; for `CCCn1cc(C(=O)NCCOC)c(S(=O)(=O)N2CCN(c3ccccc3OCC)CC2)n1`: 959 s; for `CC(C)CN1C(=O)c2cccn2CC1CNC(=O)C1(c2ccccc2)CC1` (stereo not given): 832 s.
`Cc1ccc(NC(=O)Nc2ccc3nnc(C)n3c2)c(C)c1` gave an RP-LC retention time of 695 s.
Then `Cc1cccc(CN2CCCN(c3ncccc3-c3nc(C4CC4)no3)CC2)c1`, with 732 s.
